Assay results published in patent US5219741A, “Method of making L-proline using an N-acyl-L-protine acylase” (priority 1990, dated 1993).
“Also recorded” adds a separate entry of the source. Like-named read-outs stand apart in the source and are kept apart here.

Columns and labels:
N-acyl-L-proline acylase [1] = test: Stereospecificity of hydrolysis of N-acetyl-D,L-proline; assay type: biochemical, Comamonas testosteroni DSM 5416; conditions: for L-proline (mmol/l) produced: substrate 10 mmol/l, two hours at 30° C., pH 7.0
Procedure: The hydrolysis of N-acyl-L-proline, N-acetyl-D,L-proline and N-acetyl-D-proline was determined in the following reaction mixture:
The reaction mixture was incubated for two hours at 30° C. and the L-proline produced was determined by amino acid analysis as in Example 10.

N-acyl-L-proline acylase [2] = assay type: biochemical, Comamonas testosteroni DSM 5416; conditions: native enzyme; for Activity (%): no agent = 100
Procedure: (§1) The enzymatic reaction was interrupted by pipetting 50 μl of the enzyme sample into 1.25 ml 100% acetic acid. Subsequently, 0.45 ml 0.1M tris-HCl buffer pH 7.0 and 1.25 ml ninhydrin reagent (3 g ninhydrin dissolved by heating in a mixture of 60 ml 100% acetic acid and 40 ml 6M phosphoric acid) were added. The ninhydrin reagent was freshly prepared daily. The test tubes were loosely closed with screw-on caps, incubated 30 minutes at 100° C. and subsequently cooled down in an ice bath.
(§2) The L-proline, liberated by the enzymatic hydrolysis, forms a red dye with ninhydrin at 100° C. The absorption of the red dye was measured in a spectrophotometer at 480 nm relative to a control batch without crude extract (=substrate blank). The concentration of the L-proline produced was determined using a straight calibration line with L-proline in a range of 5 to 100 nmoles per 50 μl specimen. The enzyme activity was indicated in international units; thus, one unit (U) corresponded to an amount of 1 μmole L-proline produced per minute.
The influence of various chemical agents as well as metal cations and anions on the reaction speed of the hydrolytic splitting of N-acetyl-L-proline was determined at 30° C. in a reaction batch with the following composition: […]
The enzyme was pre-incubated for 10 minutes at 30° C. with the compound before the addition of substrate to start the reaction.
The enzyme was pre-incubated for 10 minutes at 30° C. with the agent before the substrate was added to start the reaction.
The enzyme was pre-incubated 10 minutes at 30° C. with the agent before the substrate was added to start the reaction. The concentration of the anions was 10 mM in each instance.

[3] = tested on: 1,10-phenanthroline-inactivated acylase (apoenzyme); test: Influence of cations on the 1,10-phenanthroline-inactivated acylase; assay type: biochemical, Comamonas testosteroni DSM 5416; conditions: for Influence on the apoenzyme (in words): 1,10-phenanthroline-inactivated acylase; for Activity (%): inactivated enzyme after gel filtration + cation 1 mM, native enzyme = 100, no agent = 21
Procedure: FPLC/Mono Q purified enzyme was incubated for 24 hours at 4° C. in the presence of 1 mM 1,10-phenanthroline. Subsequently, enzyme and the chelating agent 1,10-phenanthroline were separated by gel filtration via Sephadex G-25M (PD-10, firm Pharmacia/LKB, Uppsala, Sweden). The enzyme-containing fractions were combined and the activity determined without and in the presence of various cations (1 mM).

N-acyl-L-proline acylase [4] = test: Substrate specificity: hydrolysis of N-acyl amino acids and proline derivatives; assay type: biochemical, Comamonas testosteroni DSM 5416; conditions: for Relative Activity (%): proline derivatives
[5] = tested on: N-acyl-L-proline acylase formation in Comamonas testosteroni DSM 5416; test: Acylase formation: specific activity of N-acyl-L-proline acylase in crude extract; assay type: cell-based
Procedure: After 24 to 48 hours, the cell-containing nutrient medium was centrifuged (15 min., 4,500 g in a cooling centrifuge), the cells were washed twice with 0.9% (w/v) NaCl solution and resuspended in 10 ml 0.1M tris-HCl buffer, pH 7.0.
The microorganisms of this suspension were macerated by ultrasound treatment (Sonifier-Cell Disrupter B-30 of the firm Branson Sonic Power Co., Danbury, Conn., USA) (2 minutes pulsating, corresponding to 1 minute of pure ultrasonic radiation. The cell fragments and non-macerated cells were centrifuged in a cooled centrifuge 30 minutes at 40,000 g and 5° C. The clear supernatant (=crude extract) was used in an enzyme test.
The reaction was started by adding crude extract and the reaction batches customarily incubated for 10 minutes at 30° C. The incubation time and the amount of crude extract were selected so that the linearity range of the enzymatic reaction and of the subsequent proline detection were not exceeded.
as §1, §2
The protein determination was carried out with a protein-determination kit of the firm Pierce Chemical Co., Rockford, Ill., USA, according to Bradford, Anal. Biochem. 72, pp. 248-254 (1976).
(§3) The carbon source of the culture medium with a concentration of 4 g/l was varied and the influence on growth and acylase formation determined.
(§4) The concentration of N-acetyl-L-proline was varied in a range of 1 g/l-5 g/l in steps of 1 g/l in the culture medium as described in Example 1.
(§5) The concentration of (NH4)2 SO4 was varied in a range of 1 g/l-5 g/l in steps of 1 g/l in the culture medium as described in Example 1.
(§6) The concentration of yeast extract was varied in a range of 1 g/l-5 g/l in steps of 1 g/l in the culture medium as described in Example 1.
(§7) The N-acetyl-L-proline concentration was reduced to 0.2 to 1.0 g/l in the culture medium as described in Example 1 and 4 g/l Na acetate were additionally added.
(§8) The method described above under f) was followed. However, the inductor, N-acetyl-L-proline, was not added to the nutrient medium until the late exponential growth phase after an incubation time of 12 hours.
(§9) The method described above under f) was followed. In addition to N-acetyl-L-proline, various N-acetyl- and N-chloroacetyl amino acids were added to the nutrient medium in a concentration of 1 g/l.

N-acyl-L-proline acylase [6] = test: Dependence of the acylase activity on the substrate concentration (KM); assay type: biochemical, Comamonas testosteroni DSM 5416; conditions: 30° C., 0.1M tris-HCl buffer, pH 7.0
Procedure: The reaction temperature was 30° C. and the incubation time 10 minutes. The N-acetyl-L-proline concentration of the reaction batch was varied in a range from 1 to 50 mM.

[7] = tested on: Comamonas testosteroni DSM 5416; test: Growth of the strain in culture medium (OD600); assay type: cell-based
Procedure: Strains which appeared uniform according to the colony morphology and the microscopic image were then cultivated in 100 ml liquid medium (500 ml Erlenmeyer flask with top and 4 lateral baffles) at 30° C. on a rotary agitator machine at 200 rpms. The culture medium had the following composition: […]
as §3, §4, §5, §6, §7, §8, §9

[8] = 30° C., pH 7.0, N-acetyl-L-proline = 100%
[9] = N-acetyl-L-proline 0.2 g/l + 4 g/l Na acetate, 34 hours
[10] = N-acetyl-L-proline 0.2 g/l added after 12 hours (late exponential growth phase), Na acetate medium, 24 hours further
[11] = N-acetyl-L-proline 0.4 g/l + 4 g/l Na acetate, 34 hours
[12] = N-acetyl-L-proline 0.4 g/l added after 12 hours (late exponential growth phase), Na acetate medium, 24 hours further
[13] = N-acetyl-L-proline 0.6 g/l + 4 g/l Na acetate, 34 hours
[14] = N-acetyl-L-proline 0.6 g/l added after 12 hours (late exponential growth phase), Na acetate medium, 24 hours further
[15] = N-acetyl-L-proline 0.8 g/l + 4 g/l Na acetate, 34 hours
[16] = N-acetyl-L-proline 0.8 g/l added after 12 hours (late exponential growth phase), Na acetate medium, 24 hours further
[17] = N-acetyl-L-proline 1.0 g/l + 4 g/l Na acetate, 34 hours
[18] = N-acetyl-L-proline 1.0 g/l added after 12 hours (late exponential growth phase), Na acetate medium, 24 hours further
[19] = N-acetyl-L-proline 1 g/l in culture medium, 24 hours
[20] = N-acetyl-L-proline 2 g/l in culture medium, 24 hours
[21] = N-acetyl-L-proline 3 g/l in culture medium, 24 hours
[22] = N-acetyl-L-proline 4 g/l in culture medium, 24 hours
[23] = N-acetyl-L-proline 5 g/l in culture medium, 24 hours
[24] = carbon source 4 g/l in culture medium
[25] = inductor 1 g/l + 4 g/l Na acetate, 24 hours

CC(=O)N1CCCC1C(=O)O (racemic) [N-acetyl-D,L-proline]
L-proline (mmol/l) produced (N-acyl-L-proline acylase [1]): 4.82 mmol/L

O=S(=O)([O-])[O-].[Cu+2] [CuSO4]
Activity (%) (N-acyl-L-proline acylase [2]; metal cation salt 1 mM): 61%
Activity (%) (N-acyl-L-proline acylase [2]; metal cation salt 10 mM): 19%
Influence on the acylase activity (in words) (N-acyl-L-proline acylase [2]): inhibiting action
Influence on the apoenzyme (in words) [3]: inhibited
Activity (%) [3]: 6%

[Cl][Fe]([Cl])[Cl] [FeCl3]
Activity (%) (N-acyl-L-proline acylase [2]; metal cation salt 1 mM): 83%
Activity (%) (N-acyl-L-proline acylase [2]; metal cation salt 10 mM): 58%
Activity (%) [3]: 5%

O=S(=O)([O-])[O-].[Fe+2] [FeSO4]
Activity (%) (N-acyl-L-proline acylase [2]; metal cation salt 1 mM): 20%
Activity (%) [3]: 12%

[Cl][Hg][Cl] [HgCl2]
Activity (%) (N-acyl-L-proline acylase [2]; metal cation salt 1 mM): 67%
Activity (%) (N-acyl-L-proline acylase [2]; metal cation salt 10 mM): 9%
Influence on the acylase activity (in words) (N-acyl-L-proline acylase [2]): inhibiting action
Influence on the apoenzyme (in words) [3]: inhibited
Activity (%) [3]: 6%

[Cl-].[Cl-].[Mg+2] [MgCl2]
Activity (%) (N-acyl-L-proline acylase [2]; metal cation salt 1 mM): 106%
Activity (%) (N-acyl-L-proline acylase [2]; metal cation salt 10 mM): 99%
Activity (%) [3]: 25%

[Cl][Mn][Cl] [MnCl2]
Activity (%) (N-acyl-L-proline acylase [2]; metal cation salt 1 mM): 104%
Activity (%) (N-acyl-L-proline acylase [2]; metal cation salt 10 mM): 103%
Activity (%) [3]: 23%

CC(=O)N1CCC[C@@H]1C(=O)O [N-acetyl-D-proline]
Stereospecific hydrolysis (in words) (N-acyl-L-proline acylase [1]): not
L-proline (mmol/l) produced (N-acyl-L-proline acylase [1]): < 0.01 mmol/L
Hydrolysis by the acylase (in words) (N-acyl-L-proline acylase [4]): not hydrolized
Relative Activity (%) (N-acyl-L-proline acylase [4]; [8]): 0%

CC(=O)N1CCC[C@H]1C(=O)O [N-acetyl-L-proline]
Stereospecific hydrolysis (in words) (N-acyl-L-proline acylase [1]): hydrolyzes
L-proline (mmol/l) produced (N-acyl-L-proline acylase [1]): 10.25 mmol/L
Acylase formation / induction (in words) [5]: only formed; also recorded: induced acylase formation
Optimum concentration in the culture medium for acylase formation [5]: 4 g/L
Spec. activity (U/mg) [5, 9]: 0.53 U/mg
Spec. activity (U/mg) [5, 10]: 0.50 U/mg
Spec. activity (U/mg) [5, 11]: 0.79 U/mg
Spec. activity (U/mg) [5, 12]: 0.63 U/mg
Spec. activity (U/mg) [5, 13]: 1.41 U/mg
Spec. activity (U/mg) [5, 14]: 0.96 U/mg
Spec. activity (U/mg) [5, 15]: 1.70 U/mg
Spec. activity (U/mg) [5, 16]: 0.67 U/mg
Spec. activity (U/mg) [5, 17]: 1.55 U/mg
Spec. activity (U/mg) [5, 18]: 1.08 U/mg
Spec. activity (U/mg) [5, 19]: 1.33 U/mg
Spec. activity (U/mg) [5, 20]: 1.36 U/mg
Spec. activity (U/mg) [5, 21]: 1.77 U/mg
Spec. activity (U/mg) [5, 22]: 1.84 U/mg
Spec. activity (U/mg) [5, 23]: 0.94 U/mg
Spec. activity (U/mg) [5, 24]: 2.26 U/mg
Spec. activity (U/mg) [5, 25]: 1.34 U/mg
Km (N-acyl-L-proline acylase [6]): 5 mM
Hydrolysis by the acylase (in words) (N-acyl-L-proline acylase [4]): hydrolyzed especially well
Rel. activity (%) (N-acyl-L-proline acylase [4]; 20 mM substrate 1.0 ml in 2.0 ml batch, 30° C., pH 7.0, N-acetyl-L-proline = 100%, amino-acid analyzer): 100%
Hydrolysis by the acylase (in words) (N-acyl-L-proline acylase [4]; listed as N-acetyl-L proline): hydrolyzes
Relative Activity (%) (N-acyl-L-proline acylase [4]; [8]): 100%
Growth (OD600) [7, 9]: 2.27 OD600
Growth (OD600) [7, 10]: 2.22 OD600
Growth (OD600) [7, 11]: 2.90 OD600
Growth (OD600) [7, 12]: 2.28 OD600
Growth (OD600) [7, 13]: 2.75 OD600
Growth (OD600) [7, 14]: 2.76 OD600
Growth (OD600) [7, 15]: 3.04 OD600
Growth (OD600) [7, 16]: 2.95 OD600
Growth (OD600) [7, 17]: 3.12 OD600
Growth (OD600) [7, 18]: 2.88 OD600
Growth (OD600) [7, 19]: 1.95 OD600
Growth (OD600) [7, 20]: 3.16 OD600
Growth (OD600) [7, 21]: 4.32 OD600
Growth (OD600) [7, 22]: 5.42 OD600
Growth (OD600) [7, 23]: 5.68 OD600
Growth (OD600) [7, 24]: 6.0 OD600
Growth (OD600) [7, 25]: 3.46 OD600

O=[N+]([O-])[O-].O=[N+]([O-])[O-].[Ni+2] [Ni(NO3)2]
Activity (%) (N-acyl-L-proline acylase [2]; metal cation salt 1 mM): 94%
Activity (%) (N-acyl-L-proline acylase [2]; metal cation salt 10 mM): 75%
Activity (%) [3]: 21%

[Cl][Sn][Cl] [SnCl2]
Activity (%) (N-acyl-L-proline acylase [2]; metal cation salt 1 mM): 72%
Activity (%) (N-acyl-L-proline acylase [2]; metal cation salt 10 mM): 55%
Influence on the acylase activity (in words) (N-acyl-L-proline acylase [2]): inhibiting action
Influence on the apoenzyme (in words) [3]: inhibited
Activity (%) [3]: 10%

[Cl-].[Cl-].[Sr+2] [SrCl2]
Activity (%) (N-acyl-L-proline acylase [2]; metal cation salt 1 mM): 104%
Activity (%) (N-acyl-L-proline acylase [2]; metal cation salt 10 mM): 100%
Activity (%) [3]: 23%

O=S(=O)([O-])[O-].[Zn+2] [ZnSO4]
Activity (%) (N-acyl-L-proline acylase [2]; metal cation salt 1 mM): 77%
Activity (%) (N-acyl-L-proline acylase [2]; metal cation salt 10 mM): 32%
Influence on the acylase activity (in words) (N-acyl-L-proline acylase [2]): inhibiting action
Influence on the apoenzyme (in words) [3]: activating action
Activity (%) [3]: 54%
